Results taken from US20040053292A1, “Proteins and dna sequences underlying these proteins used for treating inflammations” (priority 2000, published 2004).
Peptide text beside a SMILES is read from it. * marks the point of attachment. Cbz = O=C(OCc1ccccc1)*; CH2F = FC*

System: proIL-1β
Test: in vitro pro-IL1β activation in THP.1 cell lysates incubated at 30° C., Western blotting
Type: biochemical, human
Conditions: lysates of LPS-prestimulated THP.1 cells at 30° C.
Description: However, THP1 cells express caspase-5 even without LPS activation. FIG. 11c represents the results of experiments which emerge when cell lysates from THP.1 cells which have been prestimulated with LPS were incubated at 30° C. for the periods shown at the top in FIG. 11c. This is because caspase-1 activation is to be observed spontaneously when cytoplasmic cell extracts are heated to 30° C. The activation of caspase-1, caspase-5, caspase-9 and pro-IL1β, followed by Western blotting in the presence or absence of caspase inhibitors zVADfmk (50 μM), YVADfmk (5 μM) and proteasome inhibitor LLnL (50 μM) was measured as a function of time. Cytochrome C (1 ng) was added to activate Apaf-1 and caspase-9. The monoclonal antibodies employed to detect caspase-5 and caspase-9 each recognize the p20 subunit. The four sections of the picture in FIG. 11c depict the respective bands obtained by labeling with anti-caspase-1 antibody, anti-caspase-5 antibody, anti-caspase-9 antibody and anti-IL1β antibody. […]
Addition of the two caspase-1 inhibitors zVADfmk and YVADfmk blocked proIL-1β activation. […] Activation of pro-IL1β, caspase-1 and caspase-5 was measured both in the cell extracts (xt) and in the supernatants (SN). […] The cleavage of […] was detected by an antibody (anti-IL1β*) which specifically recognizes the cleaved form of pro-IL1β, i.e. IL1β*. […]

Molecule	proIL-1β activation (zVADfmk 50 μM)	proIL-1β activation (YVADfmk 5 μM)
COC(=O)C[C@H](NC(=O)[C@H](C)NC(=O)[C@@H](NC(=O)OCc1ccccc1)C(C)C)C(=O)CF [zVADfmk] (Cbz-Val-Ala-Asp(OMe)-CH2F)	blocked	–
YVADfmk	–	blocked
